Experimental data reported in BindingDB's records for doi:10.1021/jm00116a004 (Northeastern University, 1992).

How the values were obtained:
[1] = target: D(2) dopamine receptor (Sus scrofa); test: The compound was evaluated for the binding affinity towards Dopamine receptor D2 at low affinity state.
[2] = target: D(2) dopamine receptor (Sus scrofa); test: The compound was evaluated for the binding affinity towards Dopamine receptor D2 at high affinity state.
[3] = target: D(1A) dopamine receptor (Canis familiaris); test: The compound was evaluated for the dissociation constant for inhibiting the binding of [3H]-SCH- 23390 at Dopamine receptor D1
[4] = target: D(2) dopamine receptor (Sus scrofa); test: The compound was evaluated for the binding affinity towards dopamine receptor D2 at high affinity state.
[5] = target: D(1A) dopamine receptor (Canis familiaris); test: The compound was evaluated for the dissociation constant for inhibiting the binding of [3H]-SCH- 23390 at dopamine receptor D1

Ki [1] [nM]	Ki [2] [nM]	Ki [3] [nM]	Ki [4] [nM]	Ki [5] [nM]	Structure (SMILES)
2000	39	12	–	–	Oc1cc2c(c(Br)c1O)CCNCC2c1ccccc1 (configuration not stated)
–	–	–	490	1.2	CN1CCc2c(cc(O)c(O)c2Br)C(c2ccccc2)C1 (configuration not stated)
–	–	–	77	0.9	CN1CCc2c(cc(O)c(O)c2Cl)C(c2ccccc2)C1 (configuration not stated)
